Reference: PubChem BioAssay AID222 (DTP/NCI, 2004)
“And” between values parts separate entries of the source, which are not always exact repeats. Equal values may be shown once. Inconclusive results and toxic doses are left out. The calls were made as follows: active = survival T/C of 150% or more; inactive = T/C below 125% in these data.

System: C57BL/6 mice, intracerebral ependymoblastoma, median survival T/C
Experiment: NCI In Vivo Anticancer Drug Screen. Data for tumor model Ependymoblastoma (intracerebral) in C57BL/6 mice
Conditions: endpoint: median survival time, higher = longer survival
Description: The antitumor activity of compounds was measured in mice bearing transplantable tumors. Survival or tumor size were measured and the results are expressed as the measurement made in the treated group (T) divided by the measurement made in the vehicle treated control group (C). The tumor model used in this assay is Ependymoblastoma (intracerebral) in C57BL/6 mice

[1] = dose: 16.0 mg/kg/injection, schedule: Q01DX005 (ip), vehicle: saline
[2] = dose: 32.0 mg/kg/injection, schedule: Q01DX005 (ip), vehicle: Klucel (hydroxypropylcellulose) (HPC)
[3] = dose: 64.0 mg/kg/injection, schedule: Q01DX005 (ip), vehicle: saline
[4] = dose: 128.0 mg/kg/injection, schedule: Q01DX005 (ip), vehicle: Klucel (hydroxypropylcellulose) (HPC)
[5] = dose: 256.0 mg/kg/injection, schedule: Q01DX005 (ip), vehicle: saline
[6] = dose: 512.0 mg/kg/injection, schedule: Q01DX005 (ip), vehicle: Klucel (hydroxypropylcellulose) (HPC)
[7] = dose: 12.5 mg/kg/injection, schedule: Q04DX003 (ip), vehicle: saline
[8] = dose: 25.0 mg/kg/injection, schedule: Q04DX003 (ip), vehicle: saline

Measured: T/C

CCOC(=O)CNC(=O)CCCCSc1ncnc2nc[nH]c12
inactive: dose: 1.0 mg/kg/injection, schedule: Q01DX005 (ip), vehicle: Klucel (hydroxypropylcellulose) (HPC) 109 % of control | dose: 4.0 mg/kg/injection, schedule: Q01DX005 (ip), vehicle: saline 103 % of control | dose: 8.0 mg/kg/injection, schedule: Q01DX005 (ip), vehicle: Klucel (hydroxypropylcellulose) (HPC) 104 % of control | dose: 16.0 mg/kg/injection, schedule: Q01DX001 (ip), vehicle: Klucel (hydroxypropylcellulose) (HPC) 104 % of control and 105 % of control and 106 % of control | dose: 16.0 mg/kg/injection, schedule: Q01DX001 (oral), vehicle: Klucel (hydroxypropylcellulose) (HPC) 95 % of control and 102 % of control | [1] 95 % of control and 103 % of control | dose: 16.0 mg/kg/injection, schedule: Q01DX005 (oral), vehicle: Klucel (hydroxypropylcellulose) (HPC) 94 % of control | dose: 16.0 mg/kg/injection, schedule: Q#A X002 (ip), vehicle: Klucel (hydroxypropylcellulose) (HPC) 108 % of control | [2] 103 % of control and 117 % of control | dose: 32.0 mg/kg/injection, schedule: Q## X006 (ip), vehicle: Klucel (hydroxypropylcellulose) (HPC) 102 % of control | dose: 64.0 mg/kg/injection, schedule: Q01DX001 (ip), vehicle: Klucel (hydroxypropylcellulose) (HPC) 90 % of control and 100 % of control and 108 % of control | dose: 64.0 mg/kg/injection, schedule: Q01DX001 (oral), vehicle: Klucel (hydroxypropylcellulose) (HPC) 102 % of control and 103 % of control | [3] 102 % of control and 107 % of control | dose: 64.0 mg/kg/injection, schedule: Q01DX005 (oral), vehicle: Klucel (hydroxypropylcellulose) (HPC) 106 % of control | dose: 64.0 mg/kg/injection, schedule: Q## X006 (ip), vehicle: Klucel (hydroxypropylcellulose) (HPC) 120 % of control | dose: 64.0 mg/kg/injection, schedule: Q#A X002 (ip), vehicle: Klucel (hydroxypropylcellulose) (HPC) 116 % of control | [4] 113 % of control and 116 % of control | dose: 128.0 mg/kg/injection, schedule: Q## X006 (ip), vehicle: Klucel (hydroxypropylcellulose) (HPC) 106 % of control | dose: 256.0 mg/kg/injection, schedule: Q01DX001 (ip), vehicle: Klucel (hydroxypropylcellulose) (HPC) 96 % of control and 106 % of control and 113 % of control | dose: 256.0 mg/kg/injection, schedule: Q01DX001 (oral), vehicle: Klucel (hydroxypropylcellulose) (HPC) 107 % of control | [5] 92 % of control and 109 % of control | dose: 256.0 mg/kg/injection, schedule: Q01DX005 (oral), vehicle: Klucel (hydroxypropylcellulose) (HPC) 108 % of control | dose: 256.0 mg/kg/injection, schedule: Q## X006 (ip), vehicle: Klucel (hydroxypropylcellulose) (HPC) 115 % of control | dose: 256.0 mg/kg/injection, schedule: Q#A X002 (ip), vehicle: Klucel (hydroxypropylcellulose) (HPC) 114 % of control | dose: 266.0 mg/kg/injection, schedule: Q01DX005 (ip), vehicle: Klucel (hydroxypropylcellulose) (HPC) 113 % of control and 120 % of control | [6] 108 % of control | dose: 512.0 mg/kg/injection, schedule: Q## X006 (ip), vehicle: Klucel (hydroxypropylcellulose) (HPC) 105 % of control | dose: 1024.0 mg/kg/injection, schedule: Q01DX001 (ip), vehicle: Klucel (hydroxypropylcellulose) (HPC) 103 % of control and 106 % of control and 112 % of control | dose: 1024.0 mg/kg/injection, schedule: Q01DX001 (oral), vehicle: Klucel (hydroxypropylcellulose) (HPC) 91 % of control and 97 % of control | dose: 1024.0 mg/kg/injection, schedule: Q01DX005 (ip), vehicle: saline 109 % of control | dose: 1024.0 mg/kg/injection, schedule: Q01DX005 (oral), vehicle: Klucel (hydroxypropylcellulose) (HPC) 115 % of control | dose: 1024.0 mg/kg/injection, schedule: Q#A X002 (ip), vehicle: Klucel (hydroxypropylcellulose) (HPC) 99 % of control

OCCN1CCN(CC/C=C2/c3ccccc3Sc3ccc(C(F)(F)F)cc32)CC1
inactive: [7] 115 % of control | [8] 117 % of control

O=c1cc[nH]c(=O)[nH]1
inactive: [2] 98 % of control | dose: 64.0 mg/kg/injection, schedule: Q01DX005 (ip), vehicle: Klucel (hydroxypropylcellulose) (HPC) 98 % of control and 105 % of control | dose: 64.0 mg/kg/injection, schedule: Q01DX005 (ip), vehicle: saline with Tween-80 95 % of control | [4] 100 % of control and 108 % of control | dose: 128.0 mg/kg/injection, schedule: Q01DX005 (ip), vehicle: saline with Tween-80 98 % of control | dose: 256.0 mg/kg/injection, schedule: Q01DX005 (ip), vehicle: Klucel (hydroxypropylcellulose) (HPC) 98 % of control and 110 % of control | dose: 256.0 mg/kg/injection, schedule: Q01DX005 (ip), vehicle: saline with Tween-80 94 % of control | [6] 96 % of control and 104 % of control | dose: 512.0 mg/kg/injection, schedule: Q01DX005 (ip), vehicle: saline with Tween-80 104 % of control | dose: 1024.0 mg/kg/injection, schedule: Q01DX005 (ip), vehicle: Klucel (hydroxypropylcellulose) (HPC) 109 % of control | dose: 1024.0 mg/kg/injection, schedule: Q01DX005 (ip), vehicle: saline with Tween-80 100 % of control

CCC(=O)O[C@H]1CC[C@H]2[C@@H]3CCC4=CC(=O)CC[C@]4(C)[C@H]3CC[C@]12C
inactive: dose: 8.0 mg/kg/injection, schedule: Q01DX005 (ip), vehicle: saline 91 % of control and 98 % of control | [1] 90 % of control and 102 % of control | dose: 32.0 mg/kg/injection, schedule: Q01DX005 (ip), vehicle: saline 93 % of control and 100 % of control | [3] 98 % of control and 99 % of control | dose: 128.0 mg/kg/injection, schedule: Q01DX005 (ip), vehicle: saline 90 % of control | [5] 89 % of control and 94 % of control | dose: 512.0 mg/kg/injection, schedule: Q01DX005 (ip), vehicle: saline 91 % of control and 99 % of control

CC[n+]1c(-c2ccccc2)c2cc(N)ccc2c2ccc(N)cc21
inactive: dose: 12.0 mg/kg/injection, schedule: Q01DX005 (ip), vehicle: saline 99 % of control

COc1ccc2c(c1OC(C)=O)-c1cc(O)cc3c1C(C2)N(C(=O)CN(CCCl)CCCl)CC3 (stereo unspecified)
inactive: [7] 94 % of control | [8] 99 % of control | dose: 50.0 mg/kg/injection, schedule: Q04DX003 (ip), vehicle: saline 86 % of control
